Results as given in patent publication US20230149540A1, “VACCINE PLATFORM FOR THE INDUCTION OF SYSTEMIC IMMUNE RESPONSES” (The Board of Trustees of the Leland Stanford Junior …, priority 2020, published 2023).

Key:
human MAIT cells = experiment: In vitro MAIT cell activation, IFN-γ secretion (FIG. 7); type: cell-based; settings: stimulated for 18 h
Procedure: (§1) FIG. 7. In vitro exposure of human or rhesus macaque MAIT cells to their cognate antigen (5-OP-RU) (a highly unstable molecule) or microspheres loaded with 5-OP-RU-loaded MR-1 monomer induced IFN-γ secretion. Representative pseudocolor plots shown are gated on live CD8^+ T cells. Human and rhesus macaque cells were stimulated for 18 h.
(§2) Activation of innate-like T cells and effector memory T cells can be achieved by presentation of their antigen in the context of the appropriate MHC molecule. Streptavidin-coated microspheres were linked to biotinylated monomers of CD1d (type I NKT cells) or MR1 (MAIT cells) to test for induction of activation of these innate-like T cells. […] We then performed an experiment in which mice were intravenously administrated CABs loaded with αGC (positive control), which would induce the expansion of NKT cells, CD1d-αGC-coated microspheres (test group), or were left untreated (negative control) (FIG. 8).

[1] = system: rhesus macaque MAIT cells; experiment: as above; type: cell-based; settings: stimulated for 18 h
Procedure: as §1, §2

**Q.** Which “secretion of IFN-γ by MAIT cells” value (human MAIT cells) does the source give for `CC(=O)C=Nc1c(NC[C@H](O)[C@H](O)[C@H](O)CO)[nH]c(=O)[nH]c1=O` [5-OP-RU] here?
**A.** The value was “induce secretion of IFN-γ to a similar extent”.

**Q.** What about the “secretion of IFN-γ by MAIT cells” value [1] of the same compound?
**A.** Its value is “induce secretion of IFN-γ to a similar extent”.
